These results are taken from patent US10881704B2, “Usage of semen Ziziphi spinosae oil in the treatment of medicinal insomnia” (SHIJIAZHUANG YILING PHARMACEUTICAL CO., LTD., priority 2016, dated 2021).

Read-outs that look alike come from different tables or passages of the source.

For one data set, the system named is Kunming mice. Description: Length of sodium pentobarbital-induced sleep of mice with medicinal insomnia (ephedrine, prednisone). The data set is classed as in vivo. Particulars: sodium pentobarbital 50 mg/kg ip. The method, then:
Kunming mice, male, 18-22 g in weight;
60 mice were taken and placed into the laboratory for one week for acclimatization. Then they were randomly divided into 6 groups and dosed according to the drug and dosage in the table.
The investigational drug and insomnia-induced drugs were proportionally prepared into soybean oil solutions as investigational products, which were administered with via intragastric gavage with the intragastric volume calculated by 0.1 mL per 10 g body weight. The blank group was directly given soybean oil via intragastric gavage once daily, for consecutive 7 days. Mice were fasted at 8 h prior to the last dosing and given sodium pentobarbital (50 mg/kg) via intraperitoneal injection at 30 min after dosing, at the indoor temperature of 20° C. and the humidity of 40%. Measurements were made by using the righting reflex tester, the absence of righting reflex over 1 min was deemed as falling asleep, and the absence time and recovery time of righting reflex were observed and recorded. The duration from the absence of righting reflex to its recovery was the length of sleep.

Data set [1] in a line: GC fingerprint: study on the sample stability. The data set is classed as physicochemical. The following applies: Semen Ziziphi Spinosae oil sample 2 test solution; for Relative peak area, RSD (%) / Relative retention time, RSD (%): RSD over 0-12 h; for Relative peak area, Mean / Relative retention time, Mean: mean over 0-12 h; for Relative peak area, standing time 0 / Relative retention time, standing time 0: tested at 0 h; for Relative peak area, standing time 0 / Relative retention time, standing time 0 / Relative peak area, standing time 3 / Relative retention time, standing time 3 / Relative peak area, standing time 6 / Relative retention time, standing time 6 / Relative peak area, standing time 9 / Relative retention time, standing time 9 / Relative peak area, standing time 12 / Relative retention time, standing time 12: GC; for Relative peak area, standing time 3 / Relative retention time, standing time 3: tested at 3 h; for Relative peak area, standing time 6 / Relative retention time, standing time 6: tested at 6 h; for Relative peak area, standing time 9 / Relative retention time, standing time 9: tested at 9 h; for Relative peak area, standing time 12 / Relative retention time, standing time 12: tested at 12 h. The method, then: Take 0.4 g of test sample, place into a 50 mL flask, add 6 mL of sodium hydroxide-methanol solution, and then connect with condenser water bath, and recirculate until the oil drops disappear, and slowly shake the flask every 30 sec to avoid solids formed by sodium hydroxide from being adhered onto the flask wall; recirculate 10 min, add 7 mL of boron trifluoride-methanol solution into the boiled solution through the top of the condenser using a pipette, boil for another 3 min, add 5 mL of isooctane into the boiling mixed solution through the top of the condenser, remove the condenser, take out the flask, add in 20 mL of sodium chloride solution immediately, plug the flask, shake the flask violently for 15 sec, transfer the mixed solution into a 150 mL separatory funnel, rinse the flask with 10 mL of isooctane solution twice (5 mL each time), merge the washing liquid into the separatory funnel, let the funnel stand still to stratify the solution, abandon the subnatant water liquid, place the supernatant isooctane solution into a 25 mL flask, fix the volume using isooctane, add a proper amount of sodium sulfate anhydrous to absorb the trace amount of water in the solution, shake the flask well and put aside for subsequent use.
GC: PerKinElmer Clarus 680
Chromatographic column: Agilent J&W Scientific DB-WAX quartz capillary column ([…]×0.32 mm, 0.25 μm)
Injector temperature: 270° C.,
Precisely draw 1 μL standard solution and 1 μL test solution into the gas chromatograph and conduct the test.
Semen Ziziphi Spinosae oil sample 2 was taken and prepared into test solution according to the preparation method under the item “3. Preparation of test article solution”, and the resulting test solution was tested at different time points (0 h, 3 h, 6 h, 9 h and 12 h) according to the experimental conditions under the item “4. Gas chromatographic conditions”.

Another data set deals with mouse sperm. Description: Mouse sperm malformation test. The following applies: 2.0 mg/kg positive control.
The next data set relates to mouse bone marrow cell. The following applies: 60 mg/kg positive control; for Number of Micronucleus-containing PCEs: 5000 PCEs tested. The method, then: The mice were given the samples every 24 h. […] They were executed at 6 h after the last gavage of sample, with the sternal bone marrow taken, prepared into slides, fixed in methanol and stained with Giemsa.
3.4.3 Outcome measure: During the microscopy, 1,000 polychromatic erythrocytes (PCE) were counted for each animal to calculate the micronucleus rate (MN‰).

Turning to `C[C@]12C=CC(=O)C=C1CC[C@@H]1[C@@H]2C(=O)C[C@@]2(C)[C@H]1CC[C@]2(O)C(=O)CO` [Prednisone, prednisone], the “Length of Sleep” value in the data set on Kunming mice (Prednisone 1 mg/kg alone ig 7 days) worked out at 68.4 ± 27.1 min.
As to `CCCCCCCCCCCCCCCCCCCC(=O)OC` [Peak 8], in data set [1], the “Relative peak area, RSD (%)” value is recorded as 1.16%; the “Relative retention time, RSD (%)” value came out at 0.03%; the “Relative peak area, Mean” value worked out at 0.023; the “Relative retention time, Mean” value is on record as 1.3064. Further, in data set [1], the “Relative peak area, standing time 0” value is 0.023; the “Relative retention time, standing time 0” value amounted to 1.307; the “Relative peak area, standing time 3” value is on record as 0.023; the “Relative retention time, standing time 3” value stood at 1.307. For the same compound, in data set [1], the “Relative peak area, standing time 6” value was determined as 0.023; the “Relative retention time, standing time 6” value is given as 1.306; the “Relative peak area, standing time 9” value stood at 0.023; the “Relative retention time, standing time 9” value came out at 1.306. For the same compound, in data set [1], the “Relative peak area, standing time 12” value was found to be 0.023 and the “Relative retention time, standing time 12” value was 1.306.
Take `CCCCCCCC/C=C\CCCCCCCC(=O)OC` [Peak s]: in data set [1], the “Relative peak area, RSD (%)” value is 0.00%; the “Relative retention time, RSD (%)” value was 0.00%; the “Relative peak area, Mean” value stood at 1.000; the “Relative retention time, Mean” value is 1.0000. Also, in data set [1], the “Relative peak area, standing time 0” value is 1.000; the “Relative retention time, standing time 0” value is 1.000; the “Relative peak area, standing time 3” value worked out at 1.000; the “Relative retention time, standing time 3” value was 1.000. For the same compound, in data set [1], the “Relative peak area, standing time 6” value turned out to be 1.000; the “Relative retention time, standing time 6” value turned out to be 1.000; the “Relative peak area, standing time 9” value came to 1.000; the “Relative retention time, standing time 9” value stood at 1.000. Besides, in data set [1], the “Relative peak area, standing time 12” value is recorded as 1.000 and the “Relative retention time, standing time 12” value is given as 1.000.
`CO[C@@]12[C@H](COC(N)=O)C3=C(C(=O)C(C)=C(N)C3=O)N1C[C@@H]1N[C@@H]12` [Mitomycin C, mitomycin C]: the “Abnormal Rate” value in the data set with mouse sperm is listed as 5.88 ± 0.97 %. Also, in the data set on mouse sperm (5000 sperm tested), the “Number of Aberrant Sperm: Amorphous” value turned out to be 119 n, the “Number of Aberrant Sperm: Banana” value is 23 n, the “Number of Aberrant Sperm: Big head” value was determined as 5 n and the “Number of Aberrant Sperm: Folded” value is listed as 24 n. Moreover, in the data set with mouse sperm (5000 sperm tested), the “Number of Aberrant Sperm: Hook-free” value amounted to 113 n, the “Number of Aberrant Sperm: Subtotal” value stood at 294 n and the “Number of Aberrant Sperm: Two-head/two-tail” value was found to be 10 n.
As for `CN[C@@H](C)[C@H](O)c1ccccc1` [Ephedrine, ephedrine], in the data set on Kunming mice (Ephedrine 4 mg/kg alone ig 7 days), the “Length of Sleep” value is recorded as 60.8 ± 25.3 min.
Turning to `CCCCCCCCCCCCCCCCCCCCCC(=O)OC` [Peak 11], in data set [1], the “Relative peak area, RSD (%)” value was found to be 1.65%; the “Relative retention time, RSD (%)” value came to 0.08%; the “Relative peak area, Mean” value turned out to be 0.020; the “Relative retention time, Mean” value stood at 1.6532. Moreover, in data set [1], the “Relative peak area, standing time 0” value stood at 0.020; the “Relative retention time, standing time 0” value was 1.655; the “Relative peak area, standing time 3” value amounted to 0.021; the “Relative retention time, standing time 3” value is listed as 1.654. Also, in data set [1], the “Relative peak area, standing time 6” value is on record as 0.021; the “Relative retention time, standing time 6” value is reported as 1.653; the “Relative peak area, standing time 9” value stood at 0.021; the “Relative retention time, standing time 9” value was determined as 1.651. Further, in data set [1], the “Relative peak area, standing time 12” value was determined as 0.021 and the “Relative retention time, standing time 12” value is recorded as 1.653.
`CC/C=C\C/C=C\C/C=C\CCCCCCCC(=O)OC` [Peak 5]: in data set [1], the “Relative peak area, RSD (%)” value is 1.57%; the “Relative retention time, RSD (%)” value was 0.04%; the “Relative peak area, Mean” value turned out to be 0.009; the “Relative retention time, Mean” value was determined as 1.1834. In data set [1], the “Relative peak area, standing time 0” value is 0.009; the “Relative retention time, standing time 0” value is reported as 1.184; the “Relative peak area, standing time 3” value was determined as 0.009; the “Relative retention time, standing time 3” value was 1.184. In data set [1], the “Relative peak area, standing time 6” value is on record as 0.009; the “Relative retention time, standing time 6” value was determined as 1.184; the “Relative peak area, standing time 9” value was found to be 0.009; the “Relative retention time, standing time 9” value is 1.183. Moreover, in data set [1], the “Relative peak area, standing time 12” value amounted to 0.009 and the “Relative retention time, standing time 12” value is 1.183.
Take `O=P1(N(CCCl)CCCl)NCCCO1` (stereo not drawn) [Cyclophosphamide, cyclophosphamide]: in the data set on mouse bone marrow cell (Female mice), the “Micronucleus-Cell Rate” value is given as 24.6 ± 6.3 ‰, the PCE/RBC was 1.07 ± 0.13 and the “Number of Micronucleus-containing PCEs” value was 123. In addition, in the data set with mouse bone marrow cell (Male mice), the “Micronucleus-Cell Rate” value is recorded as 27.6 ± 10.4 ‰, the PCE/RBC was 1.21 ± 0.14 and the “Number of Micronucleus-containing PCEs” value came to 138.
